Experimental data from article PMC12247293 (Journal of Translational Medicine, 2025).

Target: STAT3 (Homo sapiens, UniProt P40763)
Test: SPR
Format: binding

Sequence of STAT3 (P40763 2-770): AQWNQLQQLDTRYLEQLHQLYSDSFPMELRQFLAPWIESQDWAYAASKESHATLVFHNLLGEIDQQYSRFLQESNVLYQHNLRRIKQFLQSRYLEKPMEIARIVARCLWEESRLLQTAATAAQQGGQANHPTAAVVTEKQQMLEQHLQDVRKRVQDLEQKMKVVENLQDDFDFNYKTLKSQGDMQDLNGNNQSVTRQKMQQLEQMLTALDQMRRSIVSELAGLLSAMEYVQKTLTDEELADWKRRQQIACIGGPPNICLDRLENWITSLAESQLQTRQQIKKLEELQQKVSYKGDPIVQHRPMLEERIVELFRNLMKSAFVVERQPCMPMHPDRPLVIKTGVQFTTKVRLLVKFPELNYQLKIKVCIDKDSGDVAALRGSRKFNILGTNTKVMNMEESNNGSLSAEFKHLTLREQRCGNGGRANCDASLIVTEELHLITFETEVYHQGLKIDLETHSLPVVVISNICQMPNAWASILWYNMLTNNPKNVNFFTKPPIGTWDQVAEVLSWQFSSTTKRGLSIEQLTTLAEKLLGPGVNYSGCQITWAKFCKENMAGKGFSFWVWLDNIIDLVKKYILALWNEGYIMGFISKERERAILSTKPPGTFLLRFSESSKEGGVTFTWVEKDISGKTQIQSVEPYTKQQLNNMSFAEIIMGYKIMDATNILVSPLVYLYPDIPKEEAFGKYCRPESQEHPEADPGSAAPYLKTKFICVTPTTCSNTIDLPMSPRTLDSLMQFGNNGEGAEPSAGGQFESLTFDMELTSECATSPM

Kd: 871 µM
Compound: Fc1ccc(-n2cc(CCCCN3CCC4(CC3)OCc3ccccc34)c3ccccc32)cc1 [Siramesine]
